Experiments:
[1] = tested on: wildtype Wnt signaling cascade; assay: HEK293 TOP assay (Super TopFlash luciferase reporter, Wnt-3a stimulated); assay type: cell-based; settings: Homo sapiens, HEK293, 16 h, HEK293 TOP reporter cells, Wnt3a at EC50, 16 hours
Outline: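 HEK293 cells stably carrying Super TopFlash (TOP) run in parallel with FOP cells, 10000/well plated 24 h ahead, stimulated with recombinant human Wnt-3a. Compounds tested 50 μM to 15 nM in 3.16-fold steps in CAFTY buffer pH 7.4 with 2 mM Ca^2+ and 0.01% BSA; luciferase read-out.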

[2] = tested on: HEK293 cells cotransfected with the FOP control vector; assay: HEK293 FOP assay (control reporter with non-functional TCF elements); assay type: cell-based; settings: Homo sapiens, 16 hours
Outline: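 Stable HEK293 line carrying FOP control reporter (randomized non-functional TCF sites, with pcDNA3), Geneticin-selected, plated 24 h before assay. Stimulated with recombinant human Wnt-3a (2500-5 ng/ml) and compounds 50 μM–15 nM (3.16-fold steps) in CAFTY buffer pH 7.4 with 2 mM Ca2+, 0.01% BSA, run parallel to TOP line.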

[3] = target: T1, TNKS2 (Homo sapiens, UniProt Q9H2K2); assay: TNKS2 Assay B (auto-parsylation, [3H]-NAD+ SPA); assay type: biochemical; settings: 6 nM TNKS2, auto-parsylation, over night at room temperature
T1 construct: purchased BPS Bioscience, San Diego, USA 80572 (TNKS2 Histone Ribosylation Assay Kit)
T1 sequence (Q9H2K2 1-1166): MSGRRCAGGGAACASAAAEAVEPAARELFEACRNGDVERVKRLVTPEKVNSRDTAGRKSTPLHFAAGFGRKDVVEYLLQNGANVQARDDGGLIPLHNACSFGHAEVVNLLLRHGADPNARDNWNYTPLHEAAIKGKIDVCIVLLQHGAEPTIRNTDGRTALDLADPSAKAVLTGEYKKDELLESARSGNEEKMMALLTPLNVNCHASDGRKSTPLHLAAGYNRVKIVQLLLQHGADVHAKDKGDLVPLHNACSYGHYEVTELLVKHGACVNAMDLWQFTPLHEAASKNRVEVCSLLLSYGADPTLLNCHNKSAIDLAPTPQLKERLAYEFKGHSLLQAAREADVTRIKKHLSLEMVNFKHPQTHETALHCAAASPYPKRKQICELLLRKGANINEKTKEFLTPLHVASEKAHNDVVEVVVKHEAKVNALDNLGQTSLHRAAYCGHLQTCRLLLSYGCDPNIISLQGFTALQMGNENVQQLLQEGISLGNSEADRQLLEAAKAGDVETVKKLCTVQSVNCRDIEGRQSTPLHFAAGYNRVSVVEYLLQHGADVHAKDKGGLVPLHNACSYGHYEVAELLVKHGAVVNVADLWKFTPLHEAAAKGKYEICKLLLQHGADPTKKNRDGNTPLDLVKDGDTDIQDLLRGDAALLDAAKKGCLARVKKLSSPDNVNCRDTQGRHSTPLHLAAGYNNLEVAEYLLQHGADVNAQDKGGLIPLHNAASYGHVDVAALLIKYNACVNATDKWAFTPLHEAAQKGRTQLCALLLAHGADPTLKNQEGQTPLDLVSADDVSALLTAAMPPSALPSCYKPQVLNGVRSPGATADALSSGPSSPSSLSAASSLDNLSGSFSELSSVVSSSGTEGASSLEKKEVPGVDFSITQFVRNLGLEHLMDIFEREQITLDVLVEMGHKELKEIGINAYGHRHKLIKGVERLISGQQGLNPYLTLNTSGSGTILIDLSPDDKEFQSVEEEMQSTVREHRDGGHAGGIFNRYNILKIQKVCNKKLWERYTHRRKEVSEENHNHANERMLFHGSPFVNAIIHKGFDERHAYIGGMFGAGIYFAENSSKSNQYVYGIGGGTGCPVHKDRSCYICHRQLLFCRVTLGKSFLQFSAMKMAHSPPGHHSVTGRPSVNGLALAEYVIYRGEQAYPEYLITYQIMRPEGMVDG

Compound	IC50 [1] [nM]	IC50 [2] [nM]	IC50 [3] [nM]
O=C(N[C@H]1CC[C@@]2(CCN(c3ccccc3Cl)C2=O)CC1)c1[nH]cnc1C(=O)N1CC2(COC2)C1 [Example 263, N-[(trans)-2-(2-chlorophenyl)-1-oxo-2-azaspiro[4.5]dec-8-yl]-4-(2-oxa-6-azaspiro[3.3]hept-6-ylcarbonyl)-1H-imidazole-5-carboxamide]	2.7	≥ 50000	11
O=C(N[C@H]1CC[C@@]2(CCN(c3ccccc3Cl)C2=O)CC1)c1n[nH]c2cccnc12 [Example 272, N-[(trans)-2-(2-chlorophenyl)-1-oxo-2-azaspiro[4.5]dec-8-yl]-1H-pyrazolo[4,3-b]pyridine-3-carboxamide]	200	≥ 50000	640
Cc1ccnc2c(C(=O)N[C@H]3CC[C@@]4(CCN(c5ccccc5Cl)C4=O)CC3)cnn12 [Example 273, N-[(trans)-2-(2-chlorophenyl)-1-oxo-2-azaspiro[4.5]dec-8-yl]-7-methylpyrazolo[1,5-a]pyrimidine-3-carboxamide]	1.9	≥ 50000	11
O=C(N[C@H]1CC[C@@]2(CCN(c3ccccc3Cl)C2=O)CC1)c1c[nH]c2cccnc12 [Example 274, N-[(trans)-2-(2-chlorophenyl)-1-oxo-2-azaspiro[4.5]dec-8-yl]-1H-pyrrolo[3,2-b]pyridine-3-carboxamide]	2.8	38000	71
O=C(N[C@H]1CC[C@@]2(CCN(c3cccc(Cl)c3)C2=O)CC1)c1c[nH]c2cccnc12 [Example 275, N-[(trans)-2-(3-chlorophenyl)-1-oxo-2-azaspiro[4.5]dec-8-yl]-1H-pyrrolo[3,2-b]pyridine-3-carboxamide]	600	11000	300
CN1CCN(C(=O)c2nc[nH]c2C(=O)N[C@H]2CC[C@@]3(CCN(c4cccc(Cl)c4)C3=O)CC2)CC1 [Example 283, N-[(trans)-2-(3-chlorophenyl)-1-oxo-2-azaspiro[4.5]dec-8-yl]-4-[(4-methylpiperazin-1-yl)carbonyl]-1H-imidazole-5-carboxamide]	440	20000	4300
O=C(NCCN1CCOCC1)c1nc[nH]c1C(=O)N[C@H]1CC[C@@]2(CCN(c3cccc(Cl)c3)C2=O)CC1 [Example 287, N^5-[(trans)-2-(3-chlorophenyl)-1-oxo-2-azaspiro[4.5]dec-8-yl]-N^4-[2-(morpholin-4-yl)ethyl]-1H-imidazole-4,5-dicarboxamide]	69	≥ 50000	21
Cc1cc(N2CC[C@]3(CC[C@@H](NC(=O)c4[nH]cnc4C(N)=O)CC3)C2=O)c(Cl)cc1F [Example 291, N^5-[(trans)-2-(2-chloro-4-fluoro-5-methylphenyl)-1-oxo-2-azaspiro[4.5]dec-8-yl]-1H-imidazole-4,5-dicarboxamide]	4.9	≥ 50000	8.6
Cc1cc(N2CC[C@]3(CC[C@@H](NC(=O)c4[nH]cnc4C(=O)N4CC(F)C4)CC3)C2=O)c(Cl)cc1F [Example 292, N-[(trans)-2-(2-chloro-4-fluoro-5-methylphenyl)-1-oxo-2-azaspiro[4.5]dec-8-yl]-4-[(3-fluoroazetidin-1-yl)carbonyl]-1H-imidazole-5-carboxamide]	1.6	10000	8.8
Cc1cc(N2CC[C@]3(CC[C@@H](NC(=O)c4[nH]cnc4C(=O)N4CC5(COC5)C4)CC3)C2=O)c(Cl)cc1F [Example 293, N-[(trans)-2-(2-chloro-4-fluoro-5-methylphenyl)-1-oxo-2-azaspiro[4.5]dec-8-yl]-4-(2-oxa-6-azaspiro[3.3]hept-6-ylcarbonyl)-1H-imidazole-5-carboxamide]	1.6	≥ 50000	7.9

— patent US20180148418A1, “AMIDO-SUBSTITUTED CYCLOHEXANE DERIVATIVES” (Bayer Pharma Aktiengesellschaft, priority 2015, published 2018)
